The molecules below were run on TNBC cell line MDA-MB-231 (assay: CCK-8 assay, antiproliferative activity against MDA-MB-231). Settings: Homo sapiens, MDA-MB-231, 72 h, read-out: IC50 MDA-MB-231.

Structure (SMILES) | IC50
COc1cccc2c1C(=O)c1c(O)c3c(c(O)c1C2=O)C[C@@](O)(C(=O)CO)C[C@@H]3O[C@H]1C[C@H](N)[C@H](O)[C@H](C)O1 [Adriamycin, reference compound] | 2.94 ± 0.12 µM
N[C@@H](Cc1ccc(N(CCCl)CCCl)cc1)C(=O)O [Compound 5, melphalan, reference compound] | > 20 µM
O=CN[C@@H](Cc1ccc(N(CCCl)CCCl)cc1)C(=O)O [Compound 6, formylmerphalan, reference compound] | > 20 µM
CC(C)(C)OC(=O)N[C@@H](Cc1ccc(N(CCCl)CCCl)cc1)C(=O)O [Compound 7, Boc-protected melphalan, reference compound] | > 20 µM
COC(=O)[C@H](Cc1ccc(N(CCCl)CCCl)cc1)NC(=O)CCC(=O)O [Compound 9, reference compound] | > 20 µM
COC(=O)[C@H](Cc1ccc(N(CCCl)CCCl)cc1)NC(=O)CCCC(=O)O [Compound 10, reference compound] | > 20 µM
Cc1ccc2occ(CO)c(=O)c2c1 [Compound 15] | > 20 µM
COc1ccc2occ(CO)c(=O)c2c1 [Compound 16] | > 20 µM
Cc1ccc2occ(COC(=O)c3ccc(N(CCCl)CCCl)cc3)c(=O)c2c1 [Compound 17a, (6-Methyl-4-oxo-4H-chromen-3-yl)methyl 4-(bis(2-chloroethyl)amino)benzoate] | 9.57 ± 0.65 µM
Cc1ccc2occ(COC(=O)[C@H](Cc3ccc(N(CCCl)CCCl)cc3)NC=O)c(=O)c2c1 [Compound 17b, (6-Methyl-4-oxo-4H-chromen-3-yl)methyl (S)-3–(4-(bis(2-chloroethyl)amino)phenyl)-2-formamidopropanoate] | 13.2 ± 1.12 µM
Cc1ccc2occ(COC(=O)[C@H](Cc3ccc(N(CCCl)CCCl)cc3)NC(=O)OC(C)(C)C)c(=O)c2c1 [Compound 17c, (6-Methyl-4-oxo-4H-chromen-3-yl)methyl (S)-3-(4-(bis(2-chloroethyl)amino)phenyl)-2-((tert-butoxycarbonyl)amino)propanoate] | > 20 µM
COC(=O)[C@H](Cc1ccc(N(CCCl)CCCl)cc1)NC(=O)CCC(=O)OCc1coc2ccc(C)cc2c1=O [Compound 17d, (6-Methyl-4-oxo-4H-chromen-3-yl)methyl (S)-4-((3-(4-(bis(2-chloroethyl)amino)phenyl)-1-methoxy-1-oxopropan-2-yl)amino)-4-oxobutanoate] | 11.4 ± 0.2 µM
COC(=O)[C@H](Cc1ccc(N(CCCl)CCCl)cc1)NC(=O)CCCC(=O)OCc1coc2ccc(C)cc2c1=O [Compound 17e, (6-Methyl-4-oxo-4H-chromen-3-yl)methyl (S)-5-((3-(4-(bis(2-chloroethyl)amino)phenyl)-1-methoxy-1-oxopropan-2-yl)amino)-5-oxopentanoate] | 8.32 ± 0.34 µM
COc1ccc2occ(COC(=O)c3ccc(N(CCCl)CCCl)cc3)c(=O)c2c1 [Compound 18a, (6-Methoxy-4-oxo-4H-chromen-3-yl)methyl 4-(bis(2-chloroethyl)amino)benzoate] | 9.47 ± 0.38 µM
COc1ccc2occ(COC(=O)[C@H](Cc3ccc(N(CCCl)CCCl)cc3)NC=O)c(=O)c2c1 [Compound 18b, (6-Methoxy-4-oxo-4H-chromen-3-yl)methyl (S)-3-(4-(bis(2-chloroethyl)amino)phenyl)-2-formamidopropanoate] | 11.5 ± 0.35 µM
COc1ccc2occ(COC(=O)[C@H](Cc3ccc(N(CCCl)CCCl)cc3)NC(=O)OC(C)(C)C)c(=O)c2c1 [Compound 18c, (6-Methoxy-4-oxo-4H-chromen-3-yl)methyl (S)-3-(4-(bis(2-chloroethyl)amino)phenyl)-2-((tert-butoxycarbonyl)amino)propanoate] | 16.7 ± 0.69 µM
COC(=O)[C@H](Cc1ccc(N(CCCl)CCCl)cc1)NC(=O)CCC(=O)OCc1coc2ccc(OC)cc2c1=O [Compound 18d, (6-Methoxy-4-oxo-4H-chromen-3-yl)methyl (S)-4-((3-(4-(bis(2-chloroethyl)amino)phenyl)-1-methoxy-1-oxopropan-2-yl)amino)-4-oxobutanoate] | 12.8 ± 0.32 µM
COC(=O)[C@H](Cc1ccc(N(CCCl)CCCl)cc1)NC(=O)CCCC(=O)OCc1coc2ccc(OC)cc2c1=O [Compound 18e, (6-Methoxy-4-oxo-4H-chromen-3-yl)methyl (S)-5-((3-(4-(bis(2-chloroethyl)amino)phenyl)-1-methoxy-1-oxopropan-2-yl)amino)-5-oxopentanoate] | 8.98 ± 0.26 µM
Cc1ccc2occ(CN)c(=O)c2c1 [Compound 19] | > 20 µM
COc1ccc2occ(CN)c(=O)c2c1 [Compound 20] | > 20 µM
Cc1ccc2occ(CNC(=O)c3ccc(N(CCCl)CCCl)cc3)c(=O)c2c1 [Compound 21a, 4-(Bis(2-chloroethyl)amino)-N-((6-methyl-4-oxo-4H-chromen-3-yl)methyl)benzamide] | 14.9 ± 1.06 µM
Cc1ccc2occ(CNC(=O)[C@H](Cc3ccc(N(CCCl)CCCl)cc3)NC=O)c(=O)c2c1 [Compound 21b, (S)-3-(4-(bis(2-chloroethyl)amino)phenyl)-2-formamido-N-((6-methyl-4-oxo-4H-chromen-3-yl)methyl)propanamide] | 9.42 ± 0.29 µM
Cc1ccc2occ(CNC(=O)[C@H](Cc3ccc(N(CCCl)CCCl)cc3)NC(=O)OC(C)(C)C)c(=O)c2c1 [Compound 21c, Tert-butyl (S)-(3-(4-(bis(2-chloroethyl)amino)phenyl)-1-(((6-methyl-4-oxo-4H-chromen-3-yl)methyl)amino)-1-oxopropan-2-yl)carbamate] | 12.7 ± 0.48 µM
COC(=O)[C@H](Cc1ccc(N(CCCl)CCCl)cc1)NC(=O)CCC(=O)NCc1coc2ccc(C)cc2c1=O [Compound 21d, Methyl (S)-3-(4-(bis(2-chloroethyl)amino)phenyl)-2-(4-(((6-methyl-4-oxo-4H-chromen-3-yl)methyl)amino)-4-oxobutanamido)propanoate] | 6.87 ± 0.19 µM
COC(=O)[C@H](Cc1ccc(N(CCCl)CCCl)cc1)NC(=O)CCCC(=O)NCc1coc2ccc(C)cc2c1=O [Compound 21e, Methyl (S)-3-(4-(bis(2-chloroethyl)amino)phenyl)-2–(5-(((6-methyl-4-oxo-4H-chromen-3-yl)methyl)amino)-5-oxopentanamido)propanoate] | 4.47 ± 0.15 µM
COc1ccc2occ(CNC(=O)c3ccc(N(CCCl)CCCl)cc3)c(=O)c2c1 [Compound 22a, 4-(Bis(2-chloroethyl)amino)-N-((6-methoxy-4-oxo-4H-chromen-3-yl)methyl)benzamide] | 10.6 ± 0.58 µM
COc1ccc2occ(CNC(=O)[C@H](Cc3ccc(N(CCCl)CCCl)cc3)NC=O)c(=O)c2c1 [Compound 22b, (S)-3-(4-(bis(2-chloroethyl)amino)phenyl)-2-formamido-N-((6-methoxy-4-oxo-4H-chromen-3-yl)methyl)propanamide] | 4.65 ± 0.22 µM
COc1ccc2occ(CNC(=O)[C@H](Cc3ccc(N(CCCl)CCCl)cc3)NC(=O)OC(C)(C)C)c(=O)c2c1 [Compound 22c, Tert-butyl (S)-(3-(4-(bis(2-chloroethyl)amino)phenyl)-1-(((6-methoxy-4-oxo-4H-chromen-3-yl)methyl)amino)-1-oxopropan-2-yl)carbamate] | 9.87 ± 0.36 µM
COC(=O)[C@H](Cc1ccc(N(CCCl)CCCl)cc1)NC(=O)CCC(=O)NCc1coc2ccc(OC)cc2c1=O [Compound 22d, Methyl (S)-3-(4-(bis(2-chloroethyl)amino)phenyl)-2-(4-(((6-methoxy-4-oxo-4H-chromen-3-yl)methyl)amino)-4-oxobutanamido)propanoate] | 3.05 ± 0.14 µM

Reference: article PMC8725944, “Design and synthesis of chromone-nitrogen mustard derivatives and evaluation of anti-breast cancer activity” (Journal of Enzyme Inhibition and Medicinal Chemistry, 2021)
